According to patent publication US8883809B2, “Isoxazole/isoxazoline/combretastatin linked dihydroquinazolinone hybrids as potential anticancer agents and process for the preparation thereof” (Council of Scientific & Industrial Research, priority 2008, dated 2014):
Like-named read-outs stand apart in the source and are kept apart here.

Assays:
HL-60(TB) = assay: NCI in vitro cytotoxicity, SRB assay; format: cell-based; settings: Homo sapiens; Leukemia HL-60(TB)
CCRF-CEM = assay: NCI in vitro cytotoxicity, SRB assay; settings: Homo sapiens
K-562 = assay: NCI in vitro cytotoxicity, SRB assay; settings: Homo sapiens, K562
MOLT-4 = assay: NCI in vitro cytotoxicity, SRB assay; settings: Homo sapiens
RPMI-8226 = assay: NCI in vitro cytotoxicity, SRB assay; settings: Homo sapiens
A549/ATCC = assay: NCI in vitro cytotoxicity, SRB assay; settings: Homo sapiens
EKVX = assay: NCI in vitro cytotoxicity, SRB assay; settings: Homo sapiens
HOP-92 = assay: NCI in vitro cytotoxicity, SRB assay; settings: Homo sapiens
Text: (§1) The results are expressed as percent of cell growth determined relative to that of untreated control cells (Table 2).

NCI-H23 = assay: NCI in vitro cytotoxicity, SRB assay; settings: Homo sapiens
Text: as §1

NCI-H460 = assay: NCI in vitro cytotoxicity, SRB assay; settings: Homo sapiens
Text: as §1

NCI-H522 = assay: NCI in vitro cytotoxicity, SRB assay; settings: Homo sapiens
Text: as §1

HCC-2998 = assay: NCI in vitro cytotoxicity, SRB assay; settings: Homo sapiens
Text: as §1

HCT-116 = assay: NCI in vitro cytotoxicity, SRB assay; settings: Homo sapiens
HCT-15 = assay: NCI in vitro cytotoxicity, SRB assay; settings: Homo sapiens
KM12 = assay: NCI in vitro cytotoxicity, SRB assay; settings: Homo sapiens
SW-620 = assay: NCI in vitro cytotoxicity, SRB assay; settings: Homo sapiens
SF-268 = assay: NCI in vitro cytotoxicity, SRB assay; settings: Homo sapiens
SF-295 = assay: NCI in vitro cytotoxicity, SRB assay; settings: Homo sapiens
SF-539 = assay: NCI in vitro cytotoxicity, SRB assay; settings: Homo sapiens
SNB-19 = assay: NCI in vitro cytotoxicity, SRB assay; settings: Homo sapiens
SNB-75 = assay: NCI in vitro cytotoxicity, SRB assay; settings: Homo sapiens
U251 = assay: NCI in vitro cytotoxicity, SRB assay; settings: Homo sapiens, U-251
LOX IMVI = assay: NCI in vitro cytotoxicity, SRB assay; settings: Homo sapiens
M14 = assay: NCI in vitro cytotoxicity, SRB assay; settings: Homo sapiens
IGROV1 = assay: NCI in vitro cytotoxicity, SRB assay; settings: Homo sapiens, IGROV-1
OVCAR-3 = assay: NCI in vitro cytotoxicity, SRB assay; settings: Homo sapiens
OVCAR-4 = assay: NCI in vitro cytotoxicity, SRB assay; settings: Homo sapiens
OVCAR-5 = assay: NCI in vitro cytotoxicity, SRB assay; settings: Homo sapiens
OVCAR-8 = assay: NCI in vitro cytotoxicity, SRB assay; settings: Homo sapiens
SK-OV-3 = assay: NCI in vitro cytotoxicity, SRB assay; settings: Homo sapiens
NCI/ADRRES = assay: NCI in vitro cytotoxicity, SRB assay; settings: Homo sapiens, NCI/ADR-RES
786-0 = assay: NCI in vitro cytotoxicity, SRB assay; settings: Homo sapiens
A498 = assay: NCI in vitro cytotoxicity, SRB assay; settings: Homo sapiens
ACHN = assay: NCI in vitro cytotoxicity, SRB assay; settings: Homo sapiens
CAKI-1 = assay: NCI in vitro cytotoxicity, SRB assay; settings: Homo sapiens
SN12C = assay: NCI in vitro cytotoxicity, SRB assay; settings: Homo sapiens
UO-31 = assay: NCI in vitro cytotoxicity, SRB assay; settings: Homo sapiens
PC-3 = assay: NCI in vitro cytotoxicity, SRB assay; settings: Homo sapiens
DU-145 = assay: NCI in vitro cytotoxicity, SRB assay; settings: Homo sapiens
MCF7 = assay: NCI in vitro cytotoxicity, SRB assay; settings: Homo sapiens
MDA-MB-231/ATCC = assay: NCI in vitro cytotoxicity, SRB assay; settings: Homo sapiens
HS 578T = assay: NCI in vitro cytotoxicity, SRB assay; settings: Homo sapiens
T-47D = assay: NCI in vitro cytotoxicity, SRB assay; settings: Homo sapiens, T47D
MDA-MB-468 = assay: NCI in vitro cytotoxicity, SRB assay; settings: Homo sapiens
SK-MEL-28 = assay: NCI in vitro cytotoxicity, SRB assay; settings: Homo sapiens
SK-MEL-5 = assay: NCI in vitro cytotoxicity, SRB assay; settings: Homo sapiens
UACC-257 = assay: NCI in vitro cytotoxicity, SRB assay; settings: Homo sapiens
UACC-62 = assay: NCI in vitro cytotoxicity, SRB assay; settings: Homo sapiens
MDA-MB-435 = assay: NCI in vitro cytotoxicity, SRB assay; settings: Homo sapiens
Leukemia cell lines = assay: NCI in vitro cytotoxicity, panel average
[1] = tested on: Non-small-cell lung cancer cell lines; assay: NCI in vitro cytotoxicity, panel average
Colon cancer cell lines = assay: NCI in vitro cytotoxicity, panel average
CNS cancer cell lines = assay: NCI in vitro cytotoxicity, panel average; settings: average of the panel's cell lines
Melanoma cell lines = assay: NCI in vitro cytotoxicity, panel average
[2] = tested on: Ovarian cancer cell lines; assay: NCI in vitro cytotoxicity, panel average
Renal cancer cell lines = assay: NCI in vitro cytotoxicity, panel average
[3] = tested on: Prostate cancer cell lines; assay: NCI in vitro cytotoxicity, panel average
Breast cancer cell lines = assay: NCI in vitro cytotoxicity, panel average
[4] = tested on: forty nine human tumour cell lines; assay: NCI in vitro cytotoxicity screen, SRB assay, 48 h continuous exposure
[5] = Homo sapiens, read-out: Log10 LC50 (converted)

COc1cc(C2NC(=O)c3ccccc3N2)ccc1OCCCCCOc1c(OC)cc(C2=NOC(c3cc(OC)c(OC)c(OC)c3)C2)cc1OC (centres unmarked) [Compound 7d, 2-[4-(5-{2,6-Dimethoxy-4-[5-(3,4,5-trimethoxy-phenyl)-4,5-dihydro-isoxazol-3-yl]-phenoxy}-pentyloxy)-3-methoxy-phenyl]-2,3-dihydro-1H-quinazolin-4-one]
GI50 (HL-60(TB)): 12.2 µM
GI50 (CCRF-CEM): 0.62 µM
GI50 (K-562): 0.37 µM
GI50 (MOLT-4): 0.68 µM
GI50 (RPMI-8226): 0.06 µM
GI50 (A549/ATCC): 15.7 µM
GI50 (EKVX): 0.36 µM
GI50 (HOP-92): 15.8 µM
GI50 (NCI-H23): 0.38 µM
GI50 (NCI-H460): 15.1 µM
GI50 (NCI-H522): 27.4 µM
GI50 (HCC-2998): 0.06 µM
GI50 (HCT-116): 0.26 µM
GI50 (HCT-15): 15.9 µM
GI50 (KM12): 10.4 µM
GI50 (SW-620): 21 µM
GI50 (SF-268): 20.2 µM
GI50 (SF-295): 16.4 µM
GI50 (SF-539): 21.2 µM
GI50 (SNB-19): 16.6 µM
GI50 (SNB-75): 34.2 µM
GI50 (U251): 25.2 µM
GI50 (LOX IMVI): 19.5 µM
GI50 (M14): 19.8 µM
GI50 (IGROV1): 0.32 µM
GI50 (OVCAR-3): 12.4 µM
GI50 (OVCAR-4): 0.49 µM
GI50 (OVCAR-5): 31.7 µM
GI50 (OVCAR-8): 25.7 µM
GI50 (SK-OV-3): 38.5 µM
GI50 (NCI/ADRRES): 10.6 µM
GI50 (786-0): 31.8 µM
GI50 (A498): 19.3 µM
GI50 (ACHN): 0.95 µM
GI50 (CAKI-1): 18 µM
GI50 (SN12C): 39.1 µM
GI50 (UO-31): 21.4 µM
GI50 (PC-3): 0.74 µM
GI50 (DU-145): 22.4 µM
GI50 (MCF7): 0.45 µM
GI50 (MDA-MB-231/ATCC): 14.7 µM
GI50 (HS 578T): 15 µM
GI50 (T-47D): 0.3 µM
GI50 (MDA-MB-468): 0.08 µM
GI50 (SK-MEL-28): 3.24 µM
GI50 (SK-MEL-5): 0.18 µM
GI50 (UACC-257): 0.29 µM
GI50 (UACC-62): 0.99 µM
GI50 (MDA-MB-435): 0.6 µM
CC50 (Leukemia cell lines; [5]): 70.8 µM
Log10 GI50 (Leukemia cell lines; Leukemia, average of the panel's cell lines): −6.17 mol/L
CC50 [1, 5]: ≥ 100 µM
Log10 GI50 ([1]; Non-small-cell lung, average of the panel's cell lines): −4.97 mol/L
Log10 GI50 (Colon cancer cell lines; Colon, average of the panel's cell lines): −5.17 mol/L
CC50 (Colon cancer cell lines; [5]): ≥ 100 µM
Log10 GI50 (CNS cancer cell lines): −4.66 mol/L
CC50 (Melanoma cell lines; [5]): ≥ 100 µM
Log10 GI50 (Melanoma cell lines; Melanoma, average of the panel's cell lines): −5.69 mol/L
CC50 [2, 5]: ≥ 100 µM
Log10 GI50 ([2]; Ovarian, average of the panel's cell lines): −5.20 mol/L
CC50 (Renal cancer cell lines; [5]): ≥ 100 µM
Log10 GI50 (Renal cancer cell lines; Renal, average of the panel's cell lines): −4.72 mol/L
CC50 [3, 5]: ≥ 100 µM
Log10 GI50 ([3]; Prostate, average of the panel's cell lines): −5.39 mol/L
Log10 GI50 (Breast cancer cell lines; Breast, average of the panel's cell lines): −5.82 mol/L
CC50 (Breast cancer cell lines; [5]): ≥ 100 µM
GI50 ([4]; Homo sapiens, read-out: GI50 value): < 40 µM
GI50 ([4]; Homo sapiens, read-out: Log10 GI50 mean graph midpoint (MG_MID) (converted)): 5.25 µM
CC50 ([4]; Homo sapiens, read-out: Log10 LC50 mean graph midpoint (MG_MID) (converted)): 95.5 µM
in vitro cytotoxicity (in words) ([4]; cancer cell lines): significant cytotoxicity
Log10 TGI mean graph midpoint (MG_MID) ([4]; human tumour cell lines): −4.18
